# Results published in US10682427B2, “Intra-operative imaging” (BRACCO IMAGING S.P.A., priority 2014, dated 2020).
# Several values for one entry are separate records, joined by “and”; a condition that tells them apart may be missing. Equal entries are not always repeated.
# Experiments:
# [1] = test system: rat orthotopic prostate tumor model Mat Ly-Lu; assay: Fluorescence guided-surgery in rat prostate tumor model, visual classification validated by histology; type: in vivo, Copenhagen rats
# Protocol: This example is aimed at assessing the sensitivity of the NIR RGD cyclic probe DA364 in the recognition of tumor masses using rat orthotopic prostate tumor model Mat Ly-Lu (a tumor with reduced expression of αvβ3 integrins, as illustrated below).
# Intraoperative imaging was performed on a Zeiss system, a modified surgical microscope including appropriate filters for illumination and selection of signals emitted from the probe. Rat tumoral MatLyLu prostate cells were inoculated in the right ventral lobe of the prostate. Three-four days after inoculation animals were intravenously injected with a dose ranging from 5 to 20 nmol/rat of NIR fluorescent probe and imaged 24 hours after. Tumors have been then resected through fluorescent signal guide. Tissues surrounding the fluorescent area including tissues from the left prostate lobe was excised for histological comparison. All the samples were analysed through routine histological processing (Hematoxylin and eosin stain) and additional immune-labelling.
# The experiment was performed on 10 Copenhagen rats (males) 11 weeks old, purchased from Harlan Laboratories Srl, S.Pietro al Natisone (UD), Italy. Rat prostate adenocarcinoma was induced in Copenhagen rats by orthotopic injection of the MatLylu tumor cells under isofluorane anesthesia. About 1 hour before tumor implantation, an analgesic (Rymadil) was administered subcutaneously (5 mg/kg) to rats. Then the lower abdomen was shaved and disinfected (Betadinen. A 12 mm incision of the abdominal wall along the linea Alba was performed 3 to 4 cm above the urinary orifice. The prostate was exposed after having pushed away the adipose tissue on each side of the animal.
# A cell suspension (30 μL) containing 0.5×10^6 tumor cells was injected with a 27G needle into the right ventral lobe of the prostate. The muscular and cutaneous plan was sewed up with sterile non-resorbable thread (3-0 black silk, Distrex S.p.a.). The wound was painted with disinfectant solution Betadine®. The analgesic was also administered at least once after surgery (about 24 h after). All procedures involving the animals have been conducted according to national and international laws and policies for the Care and Use of Laboratory Animals (EEC Council Directive 86/609CEE; L.D. 116/92 and EEC Council Directive 2010/63/EU; L.D. 26/2014. Authorization n.149/2006-A issued Oct. 27, 2006 by the Italian Ministry of Health).
# The tumor removal was performed using a dedicated surgical microscope (Axio Zoom v16, Carl Zeiss Beteiligungs GmbH, Jena, Germany). The microscope was equipped with a PLANAPO Z 0.5×/0.125 FWD 114 MM objective. During surgery an area of about 2.5×2.5 cm^2 was visualized. The surgical field was white-light illuminated by a cold light source (CL 9000 LED CAN (D)) when the fluorescence signal was not required, and by filtered light during the tumor removal (Illuminator: HXP 200C (D), filter set: 32 Cy 5.5 shift free (E)).
# The day before surgery, corresponding to 3-4 days after tumor implantation, animals were administered with a dose of DA364 test agent ranging from 5 to 20 nmol/rat. Twenty-four hours after probes injection, animals were anaesthetized with isofluorane gas 0.5% (O2 99.5%), secured on the surgical table in the supine position and prostate tumor will be exposed.
# After the removal of the prostatic capsule, the prostatic tumor was exposed to filtered light and fluorescence images were acquired to outline the primary tumor mass and the margins of the pathology (see FIG. 3, Panels A and D). The removal of the tumor mass was then carried out iteratively, by using fluorescence to guide the excision until absence of the fluorescent signal in the area surrounding tumor region (see FIG. 3, Panels B,E and C,F). Most of the fluorescent signal was confined in implantation area, i.e. the prostate right ventral lobe. […]
# [2] = Fluorescence quantum yield with integrating sphere; type: physicochemical; conditions: excitation 625 nm, 15 min at RT
# Protocol: Fluorescence quantum yields (0%) measurements were performed on FluoroLog-31IHR-320 (HORIBA-JobinYvon) with integrating sphere accessory.
# The measurements were carried out using an excitation wavelength of 625 nm and using a 450W Xenon Light Source. Detection was performed on TBX-04 detector from 645 to 850 nm (excitation and emission slit were 1.8 nm).
# The fluorescence quantum yield of DA364 solution was measured both in human serum SERONORM (human-based control serum), NycomedPhama, batch 1109514) and in Phosphate Buffer Saline (PBS).
# Solutions of the NIR agent were prepared in PBS and in human serum with absorbance lower than 0.1. Fluorescence (0%) measurements were carried out after incubation of the NIR agent at Room Temperature (RT) for 15 min.
# [3] = 5 to 20 nmol/rat i.v., surgery 24 h after, versus histology
smiles,measurement,setting,value
CC[N+]1=C(/C=C/C=C/C=C2/N(CCCCCC(=O)NC[C@@H]3C[C@@H]4CC[C@H]5C(=O)N[C@@H](CCCNC(=N)N)C(=O)NCC(=O)N[C@@H](CC(=O)O)C(=O)N[C@H]3C(=O)N45)c3ccc4c(S(=O)(=O)O)cc(S(=O)(=O)O)cc4c3C2(C)C)C(C)(C)c2c1ccc1c(S(=O)(=O)[O-])cc(S(=O)(=O)O)cc21 [DA364],sensitivity of visual classification of tumor tissues,[1]; [3],87%
same,specificity of visual classification of tumor tissues,[1]; [3],83%
same,"number of tissue samples, histology Negative",[1]; surgery class FLUORESCENT,3
same,"number of tissue samples, histology Positive",[1]; surgery class FLUORESCENT,20
same,"number of tissue samples, histology Negative",[1]; surgery class NON FLUORESCENT,15
same,"number of tissue samples, histology Positive",[1]; surgery class NON FLUORESCENT,3
same,Φ% (fluorescence quantum yield),[2]; PBS,36.5% and 36.5 (SD 2.37) %
same,Φ% (fluorescence quantum yield),[2]; SERONORM (human-based control serum),57.5% and 57.5 (SD 1.26) %
